Values quoted from earlier work, collected in patent publication US20060045857A1, “Sunless tanning composition and methods for using” (priority 2004, published 2006).

Conditions: in vivo

| Substance | dermal toxicity |
| --- | --- |
| Poly(vinylpyrrolidone/1-hexadecene) [PVPH] | no demonstrable dermal toxicity |
| poly(vinylpyrrolidone/1-eicosene) [PVPE] | no demonstrable dermal toxicity |
